{"source": "paper PMC4685272", "about": "(Scientific Reports, 2015)", "key": {"[1]": {"assay": "Oxidative folding (disulfide formation) in Tris HCl pH 7.5", "type": "physicochemical", "settings": "Tris HCl 100 mM pH 7.5, open vessel, RP-HPLC-ESI-MS after iodoacetamide alkylation", "procedure": "Reduced HBD3 was dissolved in Tris HCl 100 mM pH 7.5 (final peptide concentration 0.5 mg/mL) and shaken in an open vessel, with periodic withdrawal of aliquots. After alkylation of the free thiol groups with iodoacetamide solution, 100 μg of each the aliquot were analysed through RP-HPLC-ESI-MS to evaluate the oxidation status. The remaining 200 μg were purified via RP-HPLC to eliminate excess iodoacetamide, lyophilized, and subjected to tryptic digestion. Tryptic fragments were then indentified through RP-HPLC-ESI-MS. The same procedure, except tryptic digestion, was used for peptides γ and ε. Full details are given in the SI."}, "[2]": {"assay": "human serum from an healthy donor [240 µl 20% (v/v) in PBS]", "settings": "37 °C, up to 24 h"}, "human serum": {"assay": "human serum", "settings": "up to 60 min"}, "[3]": {"tested_on": "elastolytic protease cathepsins", "settings": "cited from earlier work"}, "CD98_304-414": {"target": "T1, CD98_304-414 (Homo sapiens, UniProt P08195)", "T1 construct": "GST-CD98 (102-630) and the truncated GST-CD98 (304-414); purchased Novus Biologicals, Littleton, CO", "T1 sequence (P08195 304-414 isoform P08195-1)": "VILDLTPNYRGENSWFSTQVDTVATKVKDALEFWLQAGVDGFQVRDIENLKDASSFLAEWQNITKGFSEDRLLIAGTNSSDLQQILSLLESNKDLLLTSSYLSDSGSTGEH", "assay": "SPR binding to immobilized CD98_304-414", "settings": "25 °C", "procedure": "(§1) Surface Plasmon Resonance experiments were performed as previously described. For details, see SI. […]\n(§2) Surface Plasmon resonance. Surface Plasmon resonance (SPR) experiments were performed using a Biacore T200 system (GE Healthcare, Uppsala, Sweden), at 25 °C . Binding assays were carried out between various CD98 sequences and both reduced and oxidized HBD3. The residue numbering […]\n(§3) (Novus Biologicals, Littleton, CO) were immobilized on a CM4 and/or a CM5 sensor chip (research grade) by the standard amine coupling procedure, using HBS-EP buffer (HEPES 10 mM, NaCl 150 mM, EDTA 3 mM, Surfactant P20 0.005%, pH 7.4), as running buffer. CD98 was immobilized through activation of the sensor chip with 60 µL of N-hydroxysuccinimide and N-ethyl-N-(dimethylaminopropyl)-carbodiimide at 10 µL min-1, followed by a 30 µL injection of protein diluted in 10 mM sodium acetate buffer, pH 4.0. Unreacted activated groups were blocked by a 60 µL injection of 1 M ethanolamine at 10 µL min-1. The final amount of immobilized CD98 was typically between ~ 1500 and 5000 RU, corresponding to a protein concentration of 15 ÷ 50 mg/mL on the surface layer. Subsequently, the peptides or full-length HBD3 were injected at various concentrations (100 nM–100 µM), using HBS-EP as running buffer. The binding assays were performed under previously optimized conditions14, i.e. a contact time of 120 s, a dissociation time of 1000 s, and a flow rate of 30 µL min-1.\n(§4) The SPR sensorgrams were analyzed by curve-fitting using the Biacore T200 Evaluation software.\n(§5) Dose response curves were plotted using the SPR sensorgrams and the corresponding fit. Various"}, "CD98_103-630": {"target": "T2, CD98_103-630 (Homo sapiens, UniProt P08195)", "T2 construct": "GST-CD98 (102-630) and the truncated GST-CD98 (304-414); purchased Novus Biologicals, Littleton, CO", "T2 sequence (P08195 102-630 isoform P08195-1)": "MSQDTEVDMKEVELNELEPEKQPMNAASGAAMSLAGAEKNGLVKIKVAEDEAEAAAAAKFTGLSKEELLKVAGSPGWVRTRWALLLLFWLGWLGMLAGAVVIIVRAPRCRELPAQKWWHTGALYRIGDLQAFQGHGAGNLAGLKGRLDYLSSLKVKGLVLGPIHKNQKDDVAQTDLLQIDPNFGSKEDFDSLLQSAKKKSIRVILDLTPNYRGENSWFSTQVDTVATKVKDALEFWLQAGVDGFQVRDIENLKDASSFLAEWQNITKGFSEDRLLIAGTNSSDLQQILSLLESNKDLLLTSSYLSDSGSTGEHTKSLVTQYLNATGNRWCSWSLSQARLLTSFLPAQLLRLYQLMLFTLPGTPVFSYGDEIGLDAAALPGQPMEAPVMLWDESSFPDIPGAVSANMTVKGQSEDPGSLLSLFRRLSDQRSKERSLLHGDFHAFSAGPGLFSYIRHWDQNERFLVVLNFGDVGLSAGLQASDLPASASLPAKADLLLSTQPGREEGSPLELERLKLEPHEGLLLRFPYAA", "assay": "SPR binding to immobilized CD98_103-630", "settings": "for Koff1 / Koff2 / Kon2: 25 °C, immobilized CD98_103-630; for Kon1: Biacore T200, 25 °C, HBS-EP pH 7.4, immobilized CD98_103-630", "procedure": "as §1, §2, §3, §4, §5"}, "HSV-1": {"tested_on": "HSV-1", "assay": "HSV infectivity on Vero cell monolayers (plaque count)", "type": "cell-based, Herpes simplex virus", "settings": "for pIC50: read-out: concentration showing 50% inhibition", "procedure": "The antiviral activity of the γ-core peptides γ and ε in oxidized and reduced form was evaluated, in comparison with reduced HBD3, against HIV and HSV. To establish in which phase, if any, the peptides inhibit virus infectivity, we performed experiments in four conditions: a) peptides incubated with the virus before being added to the target cells (“virus pre-treatment”), b) peptides incubated with the cells before exposure to the virus (“cell pre-treatment”), c) simultaneous addition of peptides and virus to the target cells (“co-treatment”), and d) peptides added to the virus-exposed cells (“post-treatment”).\nThe antiviral activity of the peptides against human immunodeficiency virus (HIV) and herpes simplex virus (HSV) was measured as previously described. For details, see SI. […]\nAntiviral Activity against Herpes Simplex Virus (HSV). Vero cells were grown in Dulbecco’s modified Eagle’s medium (DMEM) supplemented with 10% fetal calf serum. HSV-1 carrying a lacZ gene driven by the cytomegalovirus (CMV) IE-1 promoter to express beta-galactosidase was propagated as described elsewhere12. All experiments were conducted in parallel with no-peptide controls. The effect of peptides on the inhibition of HSV infectivity on cell monolayers13 was assessed as follows: (i) For “co-exposure” experiments, the cells were incubated with increasing concentrations of the peptides (1, 5, 10, 20, 50, 100 and 150 µM) and with the viral inoculum for 45 min at 37°C. Non -penetrated viruses were inactivated by citrate buffer at pH 3.0. Monolayers were fixed, stained with 5-bromo-4-chloro-3-indolyl-beta-D-galactopyranoside (X-gal) and plaque […]\nnumbers were scored. Experiments were performed in triplicate and the % inhibition was calculated vs. the no-peptide control; (ii) For “virus pre-exposure” experiments, approximately 2 x 10^4 PFU of HSV-1 were incubated with increasing concentrations of the peptides for 45 min at 37°C, then titrated on Vero cell monolayers; iii) For “cell pre-exposure” experiments, Vero cells were incubated with increasing concentrations of the peptides for 30 min at 4°C, and infected with serial dilutions of HSV-1 for 45 min at 37°C; and iv) For “po st-exposure” experiments, Vero cell monolayers were incubated with virus for 45 minutes at 37°C and afterwards the peptides were added to the inoculum, followed by an additional incubation period of 30 minutes at 37°C. […]"}, "[4]": {"settings": "cited from earlier work"}, "[5]": {"tested_on": "elastolytic protease cathepsins", "settings": "cited from earlier work", "source_text": "We asked whether the γ-core motif within HBDs represents a primordial HDP that evolved into the full-length molecules of today. To answer the question, we analyzed the structural and biological properties of the β-hairpin peptide of HBD3, which is the smallest substructure encompassing the γ-core motif (Fig. 1B).", "remark": "listed apart in the source"}}, "note": "pIC50: −log10 of the molar value. “Also recorded” adds a separate entry of the source. Read-outs that look alike come from different tables or passages of the source. Where a SMILES comes first, the peptide text is derived from it. Bridges are numbered along the chain shown (N, C = ends). Where no end group is shown, it is not given here.", "data": [{"compound": "CC[C@H](C)[C@@H]1NC(=O)[C@H](CCC(N)=O)NC(=O)[C@H](CCC(=O)O)NC(=O)[C@H](CCC(=O)O)NC(=O)[C@H](CCCCN)NC(=O)[C@@H]2CCCN2C(=O)[C@H](CC(C)C)NC(=O)[C@H](CO)NC(=O)[C@H](CO)NC(=O)[C@H](CC(C)C)NC(=O)[C@H](C(C)C)NC(=O)[C@H](C)NC(=O)[C@@H](NC(C)=O)CSSC[C@@H](C(N)=O)NC(=O)[C@H](CCCCN)NC(=O)CNC1=O", "note": "[peptide δ, [S^23]HBD3_18–33] (Ac-CAVLSSLPKEEQIGKC-NH2; disulfide 1-16)", "values": [{"measurement": "oxidation state (intramolecular disulfide) after 3 h", "setting": "[1]", "result": "still mostly reduced"}]}, {"compound": "Ac-CLPKEEQIGKSSTRGRKSCRRKK-NH2", "values": [{"measurement": "cleaved bond", "setting": "[2]", "result": "Arg20-Arg21, 6 h; also recorded: Lys22-Lys23, 6 h; also recorded: Cys19-Arg20, 6 h"}, {"measurement": "fragment found", "setting": "human serum", "result": "disulfide-bridged form (oxidized peptide γ)"}]}, {"compound": "GIINTLQKYYCRVRGGRCAVLSCLPKEEQIGKCSTRGRKCCRRKK", "values": [{"measurement": "fragment found", "setting": "[3]", "result": "the sequence from 22 to 45 amino acids residues of HBD3"}, {"measurement": "not cleaved", "setting": "plasma", "result": "stable in plasma"}]}, {"compound": "[S^33,40]HBD3_23–41 [Peptide ε]", "values": [{"measurement": "Koff1", "setting": "CD98_304-414", "result": "5.38 ± 0.05 ×10^−2 s^−1"}, {"measurement": "Koff2", "setting": "CD98_304-414", "result": "0.116 ± 0.06 ×10^−3 s^−1"}, {"measurement": "Kon1", "setting": "CD98_304-414", "result": "0.71 ± 0.04 ×10^3 M^−1s^−1"}, {"measurement": "Kon2", "setting": "CD98_304-414", "result": "5.67 ± 0.05 x10^−3 s^−1"}, {"measurement": "Koff1", "setting": "CD98_103-630", "result": "5.48 ± 0.03 ×10^−2 s^−1"}, {"measurement": "Koff2", "setting": "CD98_103-630", "result": "0.128 ± 0.04 ×10^−3 s^−1"}, {"measurement": "Kon2", "setting": "CD98_103-630", "result": "1.24 ± 0.04 x10^−3 s^−1"}, {"measurement": "Kon1", "setting": "CD98_103-630", "result": "0.73 ± 0.02 ×10^3 M^−1s^−1"}, {"measurement": "fold lower affinity for CD98 than HBD3", "setting": "CD98_103-630; from Table 1", "result": 70, "unit": "fold"}]}, {"compound": "human β-defensin 3 (GIINTLQKYYCRVRGGRCAVLSCLPKEEQIGKCSTRGRKCCRRKK; not fully specified (bridges); cysteine pairing not given here; UniProt P81534 23-67, looked up) [HBD3, full-length human β-defensin 3, parent host defence peptide, reference compound]", "values": [{"measurement": "pIC50", "setting": "HSV-1; cell pre-treatment", "result": 5.00}, {"measurement": "pIC50", "setting": "HSV-1; co-exposure", "result": 5.00}, {"measurement": "efficacy against HSV in words", "setting": "HSV-1; post-exposure / post-treatment conditions", "result": "no efficacy"}, {"measurement": "pIC50", "setting": "HSV-1; virus pre-exposure", "result": 4.70}, {"measurement": "stability in human serum in words", "setting": "[4]", "result": "highly stable"}, {"measurement": "Koff1", "setting": "CD98_304-414", "result": "1.26 ± 0.03 ×10^−2 s^−1"}, {"measurement": "Koff2", "setting": "CD98_304-414", "result": "0.907 ± 0.007 ×10^−3 s^−1"}, {"measurement": "Kon1", "setting": "CD98_304-414", "result": "4.65 ± 0.07 ×10^3 M^−1s^−1"}, {"measurement": "Kon2", "setting": "CD98_304-414", "result": "5.44 ± 0.06 x10^−3 s^−1"}, {"measurement": "degradation by cathepsins in words", "setting": "[5]", "result": "rapidly degraded"}, {"measurement": "Koff1", "setting": "CD98_103-630", "result": "2.10 ± 0.03 ×10^−2 s^−1"}, {"measurement": "Koff2", "setting": "CD98_103-630", "result": "1.930 ± 0.03 ×10^−3 s^−1"}, {"measurement": "Kon2", "setting": "CD98_103-630", "result": "9.03 ± 0.06 x10^−3 s^−1"}, {"measurement": "Kon1", "setting": "CD98_103-630", "result": "8.51 ± 0.05 ×10^3 M^−1s^−1"}]}, {"compound": "Ac-CLPKEEQIGKSSTRGRKSC-NH2", "values": [{"measurement": "not cleaved", "setting": "[2]", "result": "found intact after 24 h incubation"}]}]}
